Assays:
Homo sapiens = species on record: Homo sapiens; assay: Selectivity ratio of Ki for CB1 receptor (unknown origin) to Ki for CB2 receptor (unknown origin)
Cannabinoid receptor 1 = Cannabinoid receptor 1 (Homo sapiens, UniProt P21554); assay: Binding affinity to CB1 receptor (unknown origin)
Cannabinoid receptor 2 = Cannabinoid receptor 2 (Homo sapiens, UniProt P34972); assay: Binding affinity to CB2 receptor (unknown origin)
Chain of Cannabinoid receptor 2 (P34972 whole entry): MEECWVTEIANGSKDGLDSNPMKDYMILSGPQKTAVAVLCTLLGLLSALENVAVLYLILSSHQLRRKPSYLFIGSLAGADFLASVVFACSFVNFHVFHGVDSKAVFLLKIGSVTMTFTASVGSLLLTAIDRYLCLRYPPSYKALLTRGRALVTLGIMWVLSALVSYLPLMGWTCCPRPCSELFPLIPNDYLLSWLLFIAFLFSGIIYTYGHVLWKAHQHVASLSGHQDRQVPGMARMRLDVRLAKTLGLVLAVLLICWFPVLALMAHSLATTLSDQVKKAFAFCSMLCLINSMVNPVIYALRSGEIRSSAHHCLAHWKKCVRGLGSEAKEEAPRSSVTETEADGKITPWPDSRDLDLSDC

Chain of Cannabinoid receptor 1 (P21554 whole entry): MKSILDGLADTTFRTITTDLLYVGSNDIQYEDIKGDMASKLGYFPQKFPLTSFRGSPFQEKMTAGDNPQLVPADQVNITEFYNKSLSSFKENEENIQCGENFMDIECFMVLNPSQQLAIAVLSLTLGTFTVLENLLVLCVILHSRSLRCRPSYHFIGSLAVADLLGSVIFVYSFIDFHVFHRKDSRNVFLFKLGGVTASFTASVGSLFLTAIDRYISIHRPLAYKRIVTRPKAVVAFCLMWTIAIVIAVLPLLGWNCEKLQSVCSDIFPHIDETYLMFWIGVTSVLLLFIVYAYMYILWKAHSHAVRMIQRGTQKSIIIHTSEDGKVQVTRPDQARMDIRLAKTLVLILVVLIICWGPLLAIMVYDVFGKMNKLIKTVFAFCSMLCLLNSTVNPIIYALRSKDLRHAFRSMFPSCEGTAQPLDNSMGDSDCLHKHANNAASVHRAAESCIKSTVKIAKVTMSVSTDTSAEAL

## CCCn1cc(C(=O)c2ccc(C)c3ccccc23)c2ccccc21
Homo sapiens
  Ratio Ki: 173

## CN1CCCCC1Cn1cc(C(=O)c2cc([N+](=O)[O-])ccc2I)c2ccccc21 (racemic)
Cannabinoid receptor 1
  Ki: 280 nM
Cannabinoid receptor 2
  Ki: 3.4 nM
Homo sapiens
  Ratio Ki: 82

From ChEMBL document CHEMBL2424594, “Contributions of academic laboratories to the discovery and development of chemical biology tools” (J Med Chem, 2013)
